Laboratory results: ChEMBL document CHEMBL1201862, “PubChem BioAssay data set” (2004)
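Grown in 96-well plates, cells were treated for 48 hours with each compound at five concentrations. Insufficient inhibition: endpoint recorded as highest concentration tested. At the GI50, growth is halved.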 The source made the active and inactive calls. No stated cut-off is given here; in the data, active = GI50 up to about 1.1 µM and inactive = higher.

Legend:
Test in all cases: DTP human tumour cell line panel, 48 h
EKVX = system: EKVX
SK-OV-3 = system: SK-OV-3
HOP-62 = system: HOP-62
UO-31 = system: UO-31
A549 = system: A549
MOLT-4 = system: MOLT-4
SK-MEL-5 = system: SK-MEL-5
CAKI-1 = system: CAKI-1
SNB-19 = system: SNB-19
KM12 = system: KM12
SK-MEL-28 = system: SK-MEL-28
COLO 205 = system: COLO 205
OVCAR-5 = system: OVCAR-5
LOX IMVI = system: LOX IMVI
UACC-257 = system: UACC-257
NCI-H460 = system: NCI-H460
RPMI-8226 = system: RPMI-8226
HCT-116 = system: HCT-116
HCT-15 = system: HCT-15
SK-MEL-2 = system: SK-MEL-2

Compound | GI50 (EKVX) | GI50 (SK-OV-3) | GI50 (HOP-62) | GI50 (UO-31) | GI50 (A549) | GI50 (MOLT-4) | GI50 (SK-MEL-5) | GI50 (CAKI-1) | GI50 (SNB-19) | GI50 (KM12) | GI50 (SK-MEL-28) | GI50 (COLO 205) | GI50 (OVCAR-5) | GI50 (LOX IMVI) | GI50 (UACC-257) | GI50 (NCI-H460) | GI50 (RPMI-8226) | GI50 (HCT-116) | GI50 (HCT-15) [µM] | GI50 (SK-MEL-2)
C/C(=C/C(=O)N(C)c1ccccc1Cl)O[Si](C(C)C)(C(C)C)C(C)C | 26.4 µM (inactive) | 34.2 µM (inactive) | 26.8 µM (inactive) | 19.9 µM (inactive) | 36.1 µM (inactive) | 40.4 µM (inactive) | 16.4 µM (inactive) | 40.7 µM (inactive) | 23.7 µM (inactive) | 32.4 µM (inactive) | 32.8 µM (inactive) | 16.8 µM (inactive) | 18.2 µM (inactive) | 18.7 µM (inactive) | 24.8 µM (inactive) | 26.9 µM (inactive) | 24.8 µM (inactive) | 17.8 µM (inactive) | 18.2 | –
CCCNC1=Nc2ccccc2N(Cc2ccccc2)CC1 | 30.5 µM (inactive) | 28.2 µM (inactive) | 30.5 µM (inactive) | 30.3 µM (inactive) | 35.4 µM (inactive) | 10.9 µM (inactive) | 15 µM (inactive) | 21.3 µM (inactive) | 22.2 µM (inactive) | 22.5 µM (inactive) | 13.3 µM (inactive) | 10.9 µM (inactive) | 40.2 µM (inactive) | – | 14.4 µM (inactive) | 13.4 µM (inactive) | 12.9 µM (inactive) | 29.7 µM (inactive) | 20.7 | 17 µM (inactive)
CC(C)c1cc2c(c(O)c1O)[C@@]1(C)CCCC(C)(C)C1=C(O)C2 | 1.37 µM (inactive) | – | 2.78 µM (inactive) | 1.36 µM (inactive) | 1.66 µM (inactive) | 1.4 µM (inactive) | 1.03 µM (active) | 1.05 µM (active) | 2.42 µM (inactive) | 1.63 µM (inactive) | 1.84 µM (inactive) | 2.84 µM (inactive) | 1.83 µM (inactive) | 1.21 µM (inactive) | 1.13 µM (inactive) | 1.51 µM (inactive) | 0.946 µM (active) | 2.27 µM (inactive) | 1.68 | 0.968 µM (active)
Oc1cccc2c(Cl)ccnc12 | 11.7 µM (inactive) | 32.9 µM (inactive) | 1.95 µM (inactive) | 1.37 µM (inactive) | 3.44 µM (inactive) | 0.376 µM (active) | 1.22 µM (inactive) | 2.39 µM (inactive) | 23 µM (inactive) | 4.93 µM (inactive) | 7.69 µM (inactive) | 14.3 µM (inactive) | 5.22 µM (inactive) | 0.384 µM (active) | 3.1 µM (inactive) | 3.08 µM (inactive) | 0.499 µM (active) | 0.279 µM (active) | 0.305 | –
CN(C)Cc1cc(/C=C/C(=O)c2ccc(Cl)c(Cl)c2)cc(CN(C)C)c1O | 15.6 µM (inactive) | 21.8 µM (inactive) | 15.5 µM (inactive) | 6.46 µM (inactive) | 15.9 µM (inactive) | 10.1 µM (inactive) | 11.7 µM (inactive) | 9.02 µM (inactive) | 15 µM (inactive) | 13.1 µM (inactive) | 12.5 µM (inactive) | 11.2 µM (inactive) | 12.5 µM (inactive) | – | 12.1 µM (inactive) | 10.4 µM (inactive) | 13.4 µM (inactive) | 12.8 µM (inactive) | – | 14 µM (inactive)
CCN(CC)CCSc1nc2cccc([N+](=O)[O-])c2[nH]1 | > 100 µM (inactive) | > 100 µM (inactive) | – | – | > 100 µM (inactive) | > 100 µM (inactive) | > 100 µM (inactive) | > 100 µM (inactive) | – | > 100 µM (inactive) | > 100 µM (inactive) | > 100 µM (inactive) | – | > 100 µM (inactive) | > 100 µM (inactive) | – | > 100 µM (inactive) | – | > 100 | –
COc1cc(CCc2ccc(OCCN(C)C)cc2)cc(OC)c1OC | > 100 µM (inactive) | – | 84.1 µM (inactive) | 49.9 µM (inactive) | > 100 µM (inactive) | 32.6 µM (inactive) | 24.1 µM (inactive) | > 100 µM (inactive) | > 100 µM (inactive) | > 100 µM (inactive) | > 100 µM (inactive) | 20.3 µM (inactive) | 33.8 µM (inactive) | 34.8 µM (inactive) | 72.4 µM (inactive) | > 100 µM (inactive) | 28.6 µM (inactive) | 60.4 µM (inactive) | > 100 | –
CC1=C(Oc2ccccc2)C(CCC(=O)O)c2c(O)cc(Cl)c(O)c21 (centres undefined) | 71.9 µM (inactive) | – | > 100 µM (inactive) | > 100 µM (inactive) | > 100 µM (inactive) | > 100 µM (inactive) | > 100 µM (inactive) | > 100 µM (inactive) | > 100 µM (inactive) | > 100 µM (inactive) | > 100 µM (inactive) | > 100 µM (inactive) | – | > 100 µM (inactive) | > 100 µM (inactive) | > 100 µM (inactive) | > 100 µM (inactive) | > 100 µM (inactive) | > 100 | > 100 µM (inactive)
O=C1C(Cl)N(c2c(Cl)cccc2Cl)C1c1c[nH]c2ccccc12 (centres undefined) | > 100 µM (inactive) | > 100 µM (inactive) | > 100 µM (inactive) | > 100 µM (inactive) | > 100 µM (inactive) | > 100 µM (inactive) | > 100 µM (inactive) | – | > 100 µM (inactive) | > 100 µM (inactive) | > 100 µM (inactive) | > 100 µM (inactive) | > 100 µM (inactive) | – | > 100 µM (inactive) | > 100 µM (inactive) | > 100 µM (inactive) | > 100 µM (inactive) | – | > 100 µM (inactive)
O=C(Cc1ccccc1)NN1C(=O)C(Cl)C1c1ccccc1 (centres undefined) | > 100 µM (inactive) | > 100 µM (inactive) | > 100 µM (inactive) | 88.7 µM (inactive) | > 100 µM (inactive) | 23 µM (inactive) | 74.1 µM (inactive) | > 100 µM (inactive) | > 100 µM (inactive) | 66.4 µM (inactive) | > 100 µM (inactive) | > 100 µM (inactive) | > 100 µM (inactive) | – | > 100 µM (inactive) | > 100 µM (inactive) | 18.7 µM (inactive) | > 100 µM (inactive) | > 100 | > 100 µM (inactive)
CS(=O)(=O)OCC(CCl)(CCl)CCl | – | > 100 µM (inactive) | – | > 100 µM (inactive) | > 100 µM (inactive) | > 100 µM (inactive) | > 100 µM (inactive) | – | > 100 µM (inactive) | > 100 µM (inactive) | > 100 µM (inactive) | > 100 µM (inactive) | – | > 100 µM (inactive) | > 100 µM (inactive) | > 100 µM (inactive) | – | > 100 µM (inactive) | > 100 | –
CC(=O)Oc1ccc(-c2cc3ccccc3oc2=O)cc1 | 61.1 µM (inactive) | – | > 100 µM (inactive) | > 100 µM (inactive) | > 100 µM (inactive) | 45.6 µM (inactive) | – | – | > 100 µM (inactive) | 18.7 µM (inactive) | > 100 µM (inactive) | > 100 µM (inactive) | > 100 µM (inactive) | 81.3 µM (inactive) | > 100 µM (inactive) | > 100 µM (inactive) | > 100 µM (inactive) | > 100 µM (inactive) | > 100 | > 100 µM (inactive)
O=c1[nH]nc(NNc2ccccc2)c2nnn(C3CCCCC3)c12 | > 100 µM (inactive) | – | > 100 µM (inactive) | > 100 µM (inactive) | > 100 µM (inactive) | > 100 µM (inactive) | > 100 µM (inactive) | > 100 µM (inactive) | > 100 µM (inactive) | > 100 µM (inactive) | > 100 µM (inactive) | > 100 µM (inactive) | > 100 µM (inactive) | > 100 µM (inactive) | > 100 µM (inactive) | 77.6 µM (inactive) | > 100 µM (inactive) | > 100 µM (inactive) | 96.2 | > 100 µM (inactive)
CCOC(=O)CCC(NC(=O)OCc1ccccc1)C(=O)NC(CCC(=O)OCC)C(=O)NC(CCC(=O)OCC)C(=O)NC(CCC(=O)OCC)C(=O)NC(CCC(=O)OCC)C(=O)NC(CCC(=O)OCC)C(=O)NC(CCC(=O)OCC)C(=O)OCC (centres undefined) | – | – | > 100 µM (inactive) | 79.4 µM (inactive) | > 100 µM (inactive) | > 100 µM (inactive) | > 100 µM (inactive) | > 100 µM (inactive) | > 100 µM (inactive) | – | > 100 µM (inactive) | – | > 100 µM (inactive) | > 100 µM (inactive) | > 100 µM (inactive) | > 100 µM (inactive) | > 100 µM (inactive) | > 100 µM (inactive) | > 100 | > 100 µM (inactive)
CCCCN(CCCC)C1=Nc2ccccc2-n2c(nnc2C(=O)OCC)C1 | 71.9 µM (inactive) | 68.4 µM (inactive) | 95.1 µM (inactive) | 31.8 µM (inactive) | 33.9 µM (inactive) | 27 µM (inactive) | 15.1 µM (inactive) | 49.9 µM (inactive) | 91.2 µM (inactive) | 29.4 µM (inactive) | 82.2 µM (inactive) | 18.5 µM (inactive) | > 100 µM (inactive) | 38.8 µM (inactive) | 17.4 µM (inactive) | 22.7 µM (inactive) | 26.1 µM (inactive) | 27.4 µM (inactive) | – | –
O=C(/N=N/c1ccc(Br)cc1)NNc1ccc(Br)cc1 | – | 29 µM (inactive) | 16.4 µM (inactive) | 22.9 µM (inactive) | – | 11.8 µM (inactive) | 13.9 µM (inactive) | 23.7 µM (inactive) | 39.8 µM (inactive) | 17.7 µM (inactive) | 26.3 µM (inactive) | 23 µM (inactive) | 23.3 µM (inactive) | – | – | 21.9 µM (inactive) | 23.8 µM (inactive) | 17.5 µM (inactive) | 19.4 | 19.1 µM (inactive)
